From patent US20260078103A1, “ISOQUINOLONES AS PI3K INHIBITORS” (OnKure, Inc., priority 2022, published 2026)
Read-outs that look alike come from different tables or passages of the source.

Legend:
[1] = test system: T47D cells expressing mutant PI3Ka (H1047R); test: In vitro cell proliferation, T47D cells (CellTiter-Glo); assay type: cell-based; conditions: inhibition of proliferation, read-out: Avg T-47D EC50
How it was run: (§1)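 T47D cells in RPMI/10% FBS/insulin (0.2 units/mL) or SKBR3 in McCoys 5a/10% FBS, 1,500 cells/well, grown 72 h at 37 °C with 10-point compound dilutions. CellTiter-Glo luminescence; % inhibition normalised to 0.1% DMSO and 10 uM Alpelisib, EC50 from four-parameter curve fit.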

[2] = test system: SKBR3 cells express WT PI3Ka; test: In vitro cell proliferation, SKBR3 cells (CellTiter-Glo); assay type: cell-based; conditions: inhibition of proliferation
How it was run: as §1

[3] = test system: phosphorylation of AKT (pAKT) in T47D cells expressing mutant PI3Ka (H1047R); test: In vitro cell pAKT (Ser473) HTRF, T47D cells; assay type: cell-based
How it was run: (§2)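 pAKT (Ser473) was quantified by HTRF in lysates from cells exposed 6 h at 37 °C to 10-point compound series, with T47D in insulin-supplemented RPMI/10% FBS and SKBR3 in McCoy's 5a/10% FBS. Controls: 0.1% DMSO (high) and 10 uM alpelisib (low). IC50 from sigmoidal curve fitting.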

[4] = test system: phosphorylation of AKT (pAKT) in SKBR3 cells express WT PI3Ka; test: In vitro cell pAKT (Ser473) HTRF, SKBR3 cells; assay type: cell-based
How it was run: as §2

[5] = Mouse pharmacokinetics, single IV or PO dose, plasma LC/MS/MS; assay type: in vivo; conditions: CD1 mice; for PK-Mouse: PO F: PO 10 mg/kg vs IV 1 mg/kg; for AUC(0-t) / clearance: mouse, plasma; for clearance: read-out: PK-Mouse: IV Cl
Experimental: CD1 mice were dosed with a single IV or PO dose, followed by serial sampling of plasma at 0.0833 (IV only), 0.25, 0.5, 1, 2, 4, 8, 24 hours post dose. Desired serial concentrations of working solutions were achieved by diluting stock solution of analyte with 50% acetonitrile in water solution.10 μL of working solutions […] were added to 10 μL of the blank Female CD1 Mouse plasma to achieve calibration standards of 0.5˜1000 ng/ml (0.5, 1, 2, 5, 10, 50, 100, 500, 1000 ng/ml) in a total volume of 20 μL. Five quality control samples at 1 ng/ml, 2 ng/ml, 5 ng/ml, 50 ng/ml and 800 ng/ml for plasma were prepared independently of those used for the calibration curves. These QC samples were prepared on the day of analysis in the same way as calibration standards. 20 μL standards, 20 μL QC samples and 20 μL unknown samples (10 μL plasma with 10 μL blank solution) were added to 200 μL of acetonitrile containing IS mixture for precipitating protein respectively. Then the samples were vortexed for 30 s. after centrifugation at 4° Celsius, 4000 rpm for 15 min. The supernatant was diluted with water at a ratio of 1:2 (V/V, 1:2), Then 5 μL of diluted supernatant was injected into the LC/MS/MS system for quantitative analysis.

[6] = IV 1 mg/kg, 20% PEG400/20% PG/60% of 20% HPβCD solution in water, read-out: PK-Mouse: IV AUC last
[7] = IV 1 mg/kg, 20% PEG400/20% PG/60% of 20% HPβCD solution in water
[8] = PO 10 mg/kg, 30% SBEβCD in water, read-out: PK-Mouse PO AUC last
[9] = cellular pAKT, T47D cells, mutant PI3Ka (H1047R), 6 hours; read-out: Avg T-47D IC50
[10] = Homo sapiens, T47D, 6 h, cellular pAKT, T47D cells, mutant PI3Ka (H1047R), 6 hours; read-out: Avg T-47D IC50
[11] = Homo sapiens, SK-BR-3, 6 h, cellular pAKT

SMILES | EC50 ([1]; 72 hours) [nM] | EC50 ([2]; 72 hours) [nM] | IC50 [3, 9] [nM] | IC50 ([4]; cellular pAKT, 6 hours) [nM] | EC50 ([1]; Homo sapiens, T47D, 72 h) [nM] | EC50 ([2]; Homo sapiens, SK-BR-3, 72 h) [nM] | IC50 [3, 10] [nM] | IC50 [4, 11] [nM] | further results
Cc1cc(C(C)Nc2ccccc2C(=O)O)c2cc(N3CCC(C)(C)CC3)n(C)c(=O)c2c1 (single isomer, unassigned) [Example 1, 2-((1-(3-(4,4-dimethylpiperidin-1-yl)-2,7-dimethyl-1-oxo-1,2-dihydroisoquinolin-5-yl)ethyl)amino)benzoic acid] | 1 to 500 | 2000 to 15000 | – | – | – | – | – | – | IC50 ([3]; read-out: Avg T-47D IC50; cellular pAKT, T47D cells, mutant PI3Ka (H1047R), 6 hours): 1 to 500 nM; IC50 ([4]; Homo sapiens, SK-BR-3, cellular pAKT, 6 hours): > 15000 nM; PK-Mouse: PO F [5]: 50%; AUC(0-t) [5, 6]: 3060 ng·h/mL; clearance [5, 7]: 5.7 mL/min/kg; AUC(0-t) [5, 8]: 15200 ng·h/mL
Cc1cc(C(C)Nc2ccccc2C(=O)O)c2cc(N3CCN(CC(F)(F)F)CC3)n(C)c(=O)c2c1 (single isomer, unassigned) [Example 8, 2-((1-(2,7-dimethyl-1-oxo-3-(4-(2,2,2-trifluoroethyl)piperazin-1-yl)-1,2-dihydroisoquinolin-5-yl)ethyl)amino)benzoic acid] | 1 to 500 | 2000 to 15000 | 1 to 500 | 2000 to 15000 | – | – | – | – | PK-Mouse: PO F [5]: 62%; AUC(0-t) [5, 6]: 1440 ng·h/mL; clearance [5, 7]: 11.7 mL/min/kg; AUC(0-t) [5, 8]: 8900 ng·h/mL
C#Cc1ccc(N[C@H](C)c2cc(F)cc3c(=O)n(C)c(-c4ccc(OCC(F)(F)F)nc4)cc23)c(C(=O)O)n1 [Example 542] | 1 to 500 | 2000 to 15000 | 1 to 500 | 2000 to 15000 | – | – | – | – | –
C[C@@H](Nc1ccccc1C(=O)O)c1cc(F)cc2c(=O)n(C)c(-c3cnc(-c4cn(C)nc4F)c(F)c3)cc12 [Example 543] | 1 to 500 | > 15000 | 1 to 500 | > 15000 | – | – | – | – | –
C[C@@H](Nc1ccccc1C(=O)O)c1cc(F)cc2c(=O)n(C)c(-c3cnc(CF)s3)cc12 [Example 545] | – | – | – | – | 1 to 500 | > 15000 | 1 to 500 | > 15000 | –
C[C@@H](Nc1ccccc1C(=O)O)c1cc(F)cc2c(=O)n(C)c(-c3ccc(OC4CC(F)(F)C4)nc3)cc12 [Example 546] | 1 to 500 | > 15000 | 1 to 500 | > 15000 | – | – | – | – | –
C[C@@H](Nc1ccccc1C(=O)O)c1cc(F)cc2c(=O)n(C)c(-c3ccc(OCC(F)(F)F)nc3)c(F)c12 [Example 547] | – | – | – | – | 500 to 2000 | > 15000 | 1 to 500 | > 15000 | –
C[C@@H](Nc1ccccc1C(=O)O)c1cc(F)cc2c(=O)n(C)c(-c3cnc(-c4cc(F)c(F)cc4F)c(F)c3)cc12 [Example 548] | 1 to 500 | 2000 to 15000 | 1 to 500 | > 15000 | – | – | – | – | –
Cc1cc([C@@H](C)Nc2ccccc2C(=O)O)c2cc(N3CCN(c4ccc(C)nn4)CC3)n(C)c(=O)c2c1 [Example 551] | – | – | – | – | 1 to 500 | 2000 to 15000 | 1 to 500 | 2000 to 15000 | –
C[C@@H](Nc1ccccc1C(=O)O)c1cc(F)cc2c(=O)n(C)c(Br)cc12 [Example 555] | – | – | – | – | 2000 to 15000 | > 15000 | 500 to 2000 | > 15000 | –
Cc1ccc(N[C@H](C)c2cc(F)cc3c(=O)n(C)c(-c4ccc(OCC(F)(F)F)nc4)cc23)c(C(=O)O)n1 [Example 557] | 500 to 2000 | 2000 to 15000 | 1 to 500 | > 15000 | – | – | – | – | –
C[C@@H](Nc1ccccc1C(=O)O)c1cc(F)cc2c(=O)n(C)c(I)cc12 [Example 559] | – | – | – | – | 500 to 2000 | > 15000 | 500 to 2000 | > 15000 | –
CC(Nc1ccccc1C(=O)O)c1cc(F)cc2c(=O)n(C)c(-c3cnc(-c4ccc(F)cc4F)c(F)c3)cc12 (stereo not drawn) [Example 560] | 1 to 500 | 2000 to 15000 | 1 to 500 | > 15000 | – | – | – | – | –
CC(Nc1ccccc1C(=O)O)c1cc(F)cc2c(=O)n(C)c(-c3ccc(OC4CC4)nc3)c(F)c12 (stereo not drawn) [Example 561] | 1 to 500 | > 15000 | 1 to 500 | > 15000 | – | – | – | – | –
Cc1ncc(F)cc1-c1ncc(-c2c(F)c3c([C@@H](C)Nc4ccccc4C(=O)O)cc(F)cc3c(=O)n2C)cc1F [Example 562] | – | – | – | – | 1 to 500 | > 15000 | 1 to 500 | 2000 to 15000 | –
CC(Nc1ccccc1C(=O)O)c1cc(F)cc2c(=O)n(C)c(-c3cnc(OC4CC4)c(F)c3)c(F)c12 (stereo not drawn) [Example 565] | 1 to 500 | > 15000 | 1 to 500 | > 15000 | – | – | – | – | –
C[C@@H](Nc1ccccc1C(=O)O)c1cc(F)cc2c(=O)n(C)c(-c3cnc(OCC(F)(F)F)s3)cc12 [Example 568] | – | – | – | – | 1 to 500 | > 15000 | 1 to 500 | > 15000 | –
C[C@@H](Nc1ccccc1C(=O)O)c1cc(F)cc2c(=O)n(C)c(-c3cnc(OCC(F)(F)F)c(F)c3)c(F)c12 [Example 569] | – | – | – | – | 500 to 2000 | 2000 to 15000 | 1 to 500 | > 15000 | –
C[C@@H](Nc1ccccc1C(=O)O)c1cc(F)cc2c(=O)n(C)c(C34CC(CC(F)(F)F)(C3)C4)cc12 [Example 570] | – | – | – | – | 1 to 500 | > 15000 | 1 to 500 | > 15000 | –
C[C@@H](Nc1ccccc1C(=O)O)c1cc(F)cc2c(=O)n(C)c(C34CC(C(F)(F)C(F)(F)F)(C3)C4)cc12 [Example 571] | – | – | – | – | 1 to 500 | 2000 to 15000 | 1 to 500 | > 15000 | –
C[C@@H](Nc1ccccc1C(=O)O)c1cc(F)cc2c(=O)n(C)c(-c3cnc(-c4cnc(C(F)(F)F)nc4)c(F)c3)cc12 [Example 574] | – | – | – | – | 1 to 500 | 2000 to 15000 | 1 to 500 | > 15000 | –
C[C@@H](Nc1ccccc1C(=O)O)c1cc(F)cc2c(=O)n(C)c(-c3cnc(-c4ccnc(C(F)(F)F)n4)c(F)c3)cc12 [Example 575] | – | – | – | – | 2000 to 15000 | > 15000 | 500 to 2000 | > 15000 | –
Cc1nc(C(F)(F)F)c(F)cc1-c1ncc(-c2cc3c([C@@H](C)Nc4ccccc4C(=O)O)cc(F)cc3c(=O)n2C)cc1F [Example 576] | – | – | – | – | 1 to 500 | 2000 to 15000 | 1 to 500 | > 15000 | –
C[C@@H](Nc1ccccc1C(=O)O)c1cc(F)cc2c(=O)n(C)c(C34CC(c5ccc(F)cc5F)(C3)C4)cc12 [Example 578] | – | – | – | – | 1 to 500 | 2000 to 15000 | 1 to 500 | 2000 to 15000 | –
C[C@@H](Nc1ccccc1C(=O)O)c1cc(F)cc2c(=O)n(C)c(-c3cnc(C4(CC(F)(F)F)CC4)nc3)cc12 [Example 579] | – | – | – | – | 1 to 500 | 2000 to 15000 | 1 to 500 | > 15000 | –
C[C@@H](Nc1ccccc1C(=O)O)c1cc(F)cc2c(=O)n(C)c(C34CC(c5cnn(C(F)F)c5)(C3)C4)c(F)c12 [Example 580] | – | – | – | – | 1 to 500 | 2000 to 15000 | 1 to 500 | 2000 to 15000 | –
COc1ncc(-c2c(F)c3c([C@@H](C)Nc4ccccc4C(=O)O)cc(F)cc3c(=O)n2C)s1 [Example 581] | – | – | – | – | 1 to 500 | > 15000 | 1 to 500 | > 15000 | –
Cc1ncc(-c2c(F)c3c([C@@H](C)Nc4ccccc4C(=O)O)cc(F)cc3c(=O)n2C)s1 [Example 582] | – | – | – | – | 1 to 500 | > 15000 | 1 to 500 | > 15000 | –
